Test results: BindingDB's records for doi:10.7270/Q2GM89G6 (n/a, 1995)

molecular target: Protein kinase C gamma type (Rattus norvegicus, UniProt P63319); assay: Inhibition of [3H]phorbol-12,13-dibutyrate (PDBu) binding to rat brain protein kinase C gamma regulatory domain

Row | SMILES | IC50 [µM]
1 | CC(C)[C@H]1C(=O)N[C@H](CO)Cc2c[nH]c3cccc(c23)N1C | 2.75
2 | Cc1ccc2[nH]cc3c2c1N(C)[C@@H](C(C)C)C(=O)N[C@H](CO)C3 | > 100
3 | Cc1cc2ccc3[nH]cc4c3c2n1[C@@H](C(C)C)C(=O)N[C@H](CO)C4 | 10

More lines, now with the values ahead:

Row | IC50 [µM] | SMILES
4 | 1.26 | CC(C)[C@H]1C(=O)N[C@H](CO)Cc2c[nH]c3ccc4c(c23)N1[C@H](C)C4
5 | 24 | CC(C)[C@H]1C(=O)N[C@H](CO)Cc2c[nH]c3ccc4c(c23)N1[C@@H](C)C4
